{"source": "patent US7741283B2", "about": "“Compositions and methods for inhibiting cell proliferation” (St. Louis University, priority 2003, dated 2010)", "key": {"[1]": {"test_system": "TβR-V purified from bovine liver plasma membranes", "test": "125I-IGFBP-3 / 125I-TGF-β1 affinity labeling of purified TβR-V", "type": "binding", "conditions": "DSS, β1^25(41-65) 20 μM, RAP 10-40 μg/ml, α2M* 100 nM, lactoferrin 100 nM"}, "[2]": {"test_system": "TβR-V", "test": "125I-ligand affinity labeling (binding and cross-linking) in Mv1Lu cells", "design": "species or system mink", "description": "FIG. 2 depicts the effects of RAP on ^125I-IGFBP-3 (A) and ^125I-TGF-β1 binding (B) to TβR-V and on IGFBP-3-induced inhibition of DNA synthesis (C) in Mv1Lu cells. (A,B) Cells were incubated with ^125I-IGFBP-3 (10 nM) or ^125I-TGF-β1 (0.1 nM) in the presence of various concentrations of RAP as indicated. After 2.5 hr at 0° C., the ^125I-IGFBP-3-TβR-V complex or ^125I-TGF-β1-TGF-β receptor complexes were cross-linked by DSS and analyzed by autoradiography. The relative intensity of the ^125I-IGFBP-3-TβR-V complex or ^125I-TGF-β1-TGF-β receptor complex on the dried gel was quantified by a PhosphoImager. The arrow indicates the location of the ^125I-TGF-β-TβR-V complex or the ^125I-IGFBP-3-TβR-V complex. The bracket indicates the locations of the ^125I-TGF-β1-TβR-III and -TβR-II complexes. The ^125I-TGF-β1-TβR-I complex co-migrated with the dye front. The ^125I-TGF-β1-TβR-II complex can be seen upon longer time exposure of the autoradiogram. (C) Cells were incubated with various concentrations, as indicated, of IGFBP-3 and GST-RAP (100 μg/ml). […] After further incubation for 10 hr, the DNA synthesis of cells was determined by measuring [methyl-^3H] thymidine incorporation into cellular DNA. […]\nMv1Lu cells are a well-established model system for investigating TGF-β activities and receptor functions. […] After further incubation for 10 hr, DNA synthesis of the cells was determined."}, "[3]": {"test_system": "IRS-2", "test": "32P metabolic labeling and immunoprecipitation of IRS-2, MB102-16 cells", "type": "cell-based, mink", "conditions": "MB102-16 cells (αIβI); IGFBP-3 1 μg/ml, GM-CSF 1 nM"}, "[4]": {"test_system": "IRS-2", "test": "32P metabolic labeling and immunoprecipitation of IRS-2, MB102-9 cells", "type": "cell-based, mink", "conditions": "MB102-9 cells (αIβII); IGFBP-3 1 μg/ml, GM-CSF 1 nM"}, "[5]": {"test_system": "Mv1Lu cells", "test": "[methyl-3H] thymidine incorporation (DNA synthesis), Mv1Lu cells", "type": "cell-based, mink"}, "[6]": {"test_system": "DR26 cells", "test": "[methyl-3H] thymidine incorporation, DR26 cells", "type": "cell-based, mink", "conditions": "DR26 cells, in the presence of insulin", "description": "(A,B) DR26 cells were incubated with various concentrations as indicated of IGFBP-3 in the absence (A) and presence (B) of various concentrations of insulin. After 18 hr at 37° C., the [methyl-^3H] thymidine incorporation into cellular DNA was determined. (C,D,E) Mv1Lu, DR26 and R1B cells metabolically labeled with ^[…]-orthophosphate for 2 hr were treated with IGFBP-3 (1:g/ml) or insulin (10 nM) (C). DR26 cells metabolically labeled with ^[…]-orthophosphate for 2 hr were treated with or without IGFBP-3 (1 μg/ml) in the presence of various concentrations of TGF-β1 as indicated (D). Mv1Lu cells expressing αIβI and αIβII chimeric receptors (MB102-16 and MB102-9 cells, respectively) metabolically labeled with ^[…]-orthophosphate for 2 hr were treated with or without IGFBP-3 (1 μg/ml) or GM-CSF (1 nM) (E). After 2 hr at 37° C. (in the absence of […]-orthophosphate in the medium), the ^[…]-labeled IRS-2 was immunoprecipitated and analyzed by 7.5% SDS-PAGE and autoradiography. […]\nMv1Lu cells were plated on 24-well clustered dishes and incubated with various concentrations of TGF-β1 or IGFBP-3 in DMEM containing 0.1% fetal calf serum. After incubation at 37° C. for 18 hr, the cells were pulse-labeled with 1 μCi of [methyl-^3H]thymidine at 37° C. for 2 hr and the [methyl-^3H] thymidine incorporation into cellular DNA was determined as described previously (59). […]"}, "[7]": {"test_system": "IRS-2", "test": "32P metabolic labeling and immunoprecipitation of IRS-2, Mv1Lu cells", "type": "cell-based, mink", "conditions": "Mv1Lu, IGFBP-3 1 μg/ml […] then factor 10 nM (TGF-β1 20 pM) 0.5 hr"}, "[8]": {"test_system": "32D/IR/IRS-2 cells", "test": "[methyl-3H] thymidine incorporation, 32D/IR/IRS-2 cells", "type": "cell-based, murine", "conditions": "insulin 10 nM"}}, "note": "“Also recorded” adds a separate entry of the source.", "data": [{"substance": "RAP: receptor-associated protein, an LRP antagonist which blocks binding of all known ligands to LRP", "values": [{"measurement": "^125I-TGF-β1 binding to purified TβR-V", "setting": "[1]; 0.1 nM 125I-TGF-β1, […] 0° C.", "value": "appeared to inhibit"}, {"measurement": "^125I-IGFBP-3 binding to purified TβR-V", "setting": "[1]; 10 nM 125I-IGFBP-3, […] 0° C.", "value": "appeared to inhibit"}, {"measurement": "^125I-TGF-β1 binding to TβR-V and TβR-III", "setting": "[2]; 0.1 nM 125I-TGF-β1", "value": "only partially inhibited"}, {"measurement": "IC50, inhibition of ^125I-IGFBP-3 binding to TβR-V", "setting": "[2]; 10 nM 125I-IGFBP-3", "value": "~5", "unit": "µg/mL"}]}, {"substance": "GM-CSF: granulocyte/macrophage colony-stimulating factor", "values": [{"measurement": "Specific dephosphorylation (mobility change) of IRS-2", "setting": "[3]", "value": "only induced specific dephosphorylation (electrophoretic mobility change) of IRS-2 in MB102-9 cells"}, {"measurement": "Specific dephosphorylation (mobility change) of IRS-2", "setting": "[4]", "value": "induce moderate specific dephosphorylation"}]}, {"substance": "insulin: insulin [reference compound]", "values": [{"measurement": "Blocking of IGFBP-3-induced growth inhibition", "setting": "[5]; Mv1Lu cells", "value": "completely blocked"}, {"measurement": "Effect alone on TGF-β1-induced inhibition of DNA synthesis", "setting": "[5]; insulin 10 nM or cyclic RGD peptide 0.01 μg/ml alone", "value": "did not block; also recorded: Neither insulin (10 nM) nor the cyclic RGD peptide (0.01 μg/ml) alone affected"}, {"measurement": "Reversal of IGFBP-3 inhibition of DNA synthesis", "setting": "[6]", "value": "completely reversed"}, {"measurement": "Blocking of IGFBP-3-induced specific dephosphorylation of IRS-2 by growth factors/cytokines", "setting": "[7]", "value": "blocked"}, {"measurement": "Effect on IGFBP-3-induced growth inhibition", "setting": "[8]", "value": "capable of blocking"}, {"measurement": "Effect on TGF-β1-induced growth inhibition", "setting": "[8]", "value": "partially reversing"}]}]}
